From paper PMC3015019 (Biological psychiatry, 2010)
Where a name gives a salt, the structure may show the parent alone.

Columns and labels:
[1] = test system: DA levels in dialysates from the NAc shell; test: In-vivo microdialysis of extracellular DA in the NAc shell of freely moving rats; conditions: rat; for time for DA levels to return to basal levels after injection: cocaine: highest dose
σ1 receptor = σ1 receptor (Cavia porcellus, UniProt Q60492); test: Sigma 1 receptor binding, [3H]; set-up: species or system guinea pig
σ1 receptor, sequence (Q60492 whole entry): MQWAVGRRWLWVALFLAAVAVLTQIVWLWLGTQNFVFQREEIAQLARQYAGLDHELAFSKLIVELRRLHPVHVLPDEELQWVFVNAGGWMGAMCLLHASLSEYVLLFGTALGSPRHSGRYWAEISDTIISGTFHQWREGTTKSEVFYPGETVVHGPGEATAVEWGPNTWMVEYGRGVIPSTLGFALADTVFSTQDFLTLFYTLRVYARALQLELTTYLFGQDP

σ2 receptor = biological target: T1, σ2 receptor (Cavia porcellus, UniProt H0V073); test: Sigma 2 receptor binding, [3H]DTG displacement in presence of; set-up: species or system guinea pig; conditions: ratio of σ2 to σ1 affinity values
T1 sequence (H0V073 1-176): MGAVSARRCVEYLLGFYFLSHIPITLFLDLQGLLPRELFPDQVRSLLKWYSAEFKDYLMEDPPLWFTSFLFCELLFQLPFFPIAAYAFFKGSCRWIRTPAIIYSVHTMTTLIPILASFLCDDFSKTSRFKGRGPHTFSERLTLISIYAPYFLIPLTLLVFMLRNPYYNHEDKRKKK

[2] = 10–30 mg/kg i.p., administered alone

**Q.** For `CC(=O)c1ccc2c(c1)oc(=O)n2CCCCN1CCN(c2ccc(F)cc2)CC1` [SN79], which “effect on extracellular levels of DA, antagonist alone” value ([1]; 1–3 mg/kg i.p., up to 100 min after administration) is on record?
**A.** did not significantly modify

**Q.** Which results are given for `COC(=O)[C@H]1[C@@H](OC(=O)c2ccccc2)C[C@@H]2CC[C@H]1N2C` [Cocaine, (−)-cocaine hydrochloride]?
**A.** Ki (σ1 receptor): 5.19 µM; time for DA levels to return to basal levels after injection ([1]; i.v.): ≤ 50 min

**Q.** How did the “DA levels at 2 hr after injection, antagonist alone” value ([1]; 10 mg/kg i.p., administered alone) turn out when `CN(CCc1ccc(Cl)c(Cl)c1)CCN1CCCC1` [BD 1008] was run?
**A.** ~75 % of basal control values

**Q.** For `CN1CCN(CCc2ccc(Cl)c(Cl)c2)CC1` [BD 1063], which σ2/σ1 (σ2 receptor) is on record?
**A.** 70.9

**Q.** And the “later decrease in DA levels, antagonist alone” value [1, 2]?
**A.** about 80 % of baseline

**Q.** And the “transient (<30 min) non-significant increase in DA levels, antagonist alone” value [1, 2]?
**A.** about 30%

**Q.** With `CN(C)CCN(C)CCc1ccc(Cl)c(Cl)c1` [BD 1047] as the compound, how does the σ2/σ1 (σ2 receptor) read?
**A.** 15.2

**Q.** With `Cc1ccccc1N=C(N)Nc1ccccc1C` [DTG] as the compound, how does the “time of maximal effect on DA levels” value ([1]; 3.2 mg/kg i.v.) read?
**A.** 20 min

**Q.** What about the “time of maximal effect on DA levels” value ([1]; 5.6 mg/kg i.v.) of the same compound?
**A.** ≤ 10 min

**Q.** And the acute toxicity ([1]; i.v., doses higher than 5.6 mg/kg)?
**A.** signs of acute toxicity

**Q.** What about the “time for DA levels to return to basal levels after injection” value ([1]; i.v.) of the same compound?
**A.** ≤ 45 min
